From patent publication US10640487B2, “Solid state forms of Nilotinib salts” (Teva Pharmaceuticals USA, Inc., priority 2016, dated 2020)

What was measured:
[1] = Long term and accelerated storage stability of the solid state form; type: physicochemical
[2] = Thermodynamic stability (resistance to polymorphic conversion) compared with forms I and II of WO'222; type: physicochemical; conditions: compared to forms I and II of Nilotinib fumarate described in WO'222
From the text: As used herein, and unless indicated otherwise, the term “thermo-dynamical stability” in relation to solid state forms of the present disclosure refers to resistance of the solid state form to polymorphic conversion under certain conditions, for example, heating, melting or dissolving. […] In some embodiments, the conversion is about 1% (w/w) to about 20% (w/w), about 1% (w/w) to about 10% (w/w) or about 1% (w/w) to about 5% (w/w).

Nilotinib fumarate [Form III of Nilotinib fumarate]
chemical and polymorphic stability ([1]; accelerated stability conditions at 25° C./60% RH with desiccant): chemically and polymorphically stable
chemical and polymorphic stability ([1]; long term stability conditions at 5° C.): chemically and polymorphically stable
thermodynamic stability [2]: thermodynamically more stable
